Reference: article PMC7156724, “Potent BRD4 inhibitor suppresses cancer cell-macrophage interaction” (Nature Communications, 2020)
“And” between values parts separate entries of the source, which are not always exact repeats. Equal entries are not always repeated.

Columns and labels:
[1] = tested on: TMD8 large B cell lymphoma; test: TMD8 large B cell lymphoma model tumor growth; format: in vivo, mouse; conditions: for Tumor volume: n=6, individual animals
Source text: PO, oral administration; QD, once daily; BID, twice daily. b–d Tumor growth curves for A2780 ovarian tumor (n = 5) (b), TMD8 large B cell lymphoma (n = 6) (c), and B16F10 melanoma (n = 5) (d) bearing mice treated with the indicated compounds once daily for 11-21 days. e, f Tumor growth curves for A375 melanoma (n = 6) (e), and patient-derived xenograft (PDX) of melanoma (n = 5) (f) bearing mice treated with the indicated compounds once daily (5 days on, 2 days off) for 21 days. For d–f, NHWD-870 used is NHWD-870-HCl synthesized using Suzuki coupling route. Data are presented as mean ± SEM in (a, b, d, f) and mean + SEM in (c, e). p values were calculated using two-tailed, unpaired t tests. *p < 0.05; **p < 0.01; ***p < 0.001. Source data are provided as a Source Data file.
4–6 weeks old female BALB/c nude mice were used for most experiments, with the exception of 6–8 weeks old female C57BL/6 mice were used for B16F10 experiments, and 6–8 weeks old male BALB/c nude mice and SD rats were used for pharmacokinetic experiments. All animals were purchased from Shanghai SIPPR-Bk Lab Animal Co., Ltd. All animals were housed under a regimen of 12 h light/12 h dark cycles and specific pathogen-free conditions. 5×10^6 NCI-H526, ES-2, MDA-MB231, A2780, A375, B16F10, and TMD-8 cells (0.1 ml) were injected subcutaneously into female nude mice. The melanoma patient-derived xenograft model was derived from a human melanoma sample (BRAF, NARS and NF1 wild type, and p53 mutant) removed from a patient in Xiangya Hospital. Surgically removed tumor fragments were implanted subcutaneously into female NSG mice. When the tumors grew to ~1000 mm^3, they were harvested and cryopreserved or immediately re-implanted for expansion or experiments. Mouse body weight and tumor sizes were measured every 3 days. Once the tumors grew to 150–200 mm^3, mice were treated with the compounds as described in the Figures. 1 × 10^6 A2780 cells (1 ml) were injected into the abdominal cavity of nude mice. Ascitic volume and tumor weight were measured by an electronic balance. All the procedures were evaluated and approved by the Institutional Animal Care and Use Committee of Central South University and Yale University.

TAMs = test: Transwell co-culture of pretreated A2780 cells and TAMs with CSF1 or anti-CSF1R antibodies; format: cell-based, mouse; conditions: co-culture with pretreated A2780 cells, MCSF-1 10ng/ml where added
Protocol: Fig. 6 CSF1/CSF1R signaling is critical for the tumor inhibitory effects of NHWD-870 and CSF1 induced ovarian cancer growth depends on macrophages. a Number of TAMs after treatment with the indicated concentration of CSF1 for 48 h. Data are presented as mean ± SEM from three independent experiments. b–d Schematics of the experiments (b). A2780 cells (pre-treated with DMSO or 100 nM NHWD-870 for 48 h) were seeded into the top chamber (transwell size: 0.4 μm), and TAMs (Mac, 40,000 cells per 24-well) in medium with PBS or 10 ng/ml CSF1 (c), or 50 ng/ml IgG or anti-CSF1R antibodies (d), were seeded into the bottom chamber. Shown are quantification of TAMs (c, d). Data are presented as mean ± SEM from three independent experiments. e Representative western blot analysis of A2780 cells stably transfected with CSF1 or empty vector (EV). Selected from three independent experiments. f Schematics of the animal experiments using an orthotopic mouse OC model, established by intraperitoneally injecting 1 × 10^6 (g–j) or 2 × 10^6 (k–m) human A2780 cells overexpressing CSF1 or control into female recipient nude mice. Mice were then treated with/without liposomal clodronate (LC) for 45 days (g–j) or treated with/without NHWD-870 (PO, QD, 3 mg/kg) for 37 days (k–m). g Increased mouse body weight was measured at the indicated time points (day 0-45 after LC treatment). h–j Net tumor weight (h), ascitic fluid volumes (i) tumor implantations in peritoneum, omentum and pevic cavity (j) were measured at day 45 from LC treatment. k–m Net tumor weight (k), ascitic fluid volumes (l) tumor implantations in peritoneum, omentum and pevic cavity (m) were measured at day 37 after NHWD-870 treatment. For g–m, data are presented as mean ± SEM from five different mice. p values were calculated using two-tailed, unpaired t tests in this figure. n.s, not significant; *p < 0.05; **p < 0.01; and ***p < 0.001. Source data are provided as a Source Data file.
CD45^+CD11b^+F4/80^+ TAMs were isolated from peritoneal metastasis of A2780 tumor-bearing mice and cultured in RPMI-1640 supplemented with 10% FBS, 1% penicillin/streptomycin, and 0–50 ng/ml CSF1 (R&D Systems) as indicated according to standard protocols. In the cancer cell-macrophage co-culture experiments, CSF1 was not added. In the transwell (Corning, pore size, 0.4 μm) co-culture experiments, tumor cells were placed into the upper chamber, and TAMs were seeded into the lower chamber.

## Cc1nnn(C)c1-c1cnc2c3c4cnn(C)c4ccc3n([C@H](c3ccccc3)C3CCOCC3)c2c1 [NHWD-870]
[1]; Fig.3c TMD-8, 1.5mg/kg p.o. QD x 21D, day 0
  Tumor volume: 214.469 mm^3 and 165.444 mm^3 and 94.318 mm^3 and 104.496 mm^3 and 146.158 mm^3 and 140.975 mm^3
[1]; Fig.3c TMD-8, 1.5mg/kg p.o. QD x 21D, day 3
  Tumor volume: 338.876 mm^3 and 252.047 mm^3 and 100.523 mm^3 and 149.534 mm^3 and 223.518 mm^3 and 132.449 mm^3
[1]; Fig.3c TMD-8, 1.5mg/kg p.o. QD x 21D, day 7
  Tumor volume: 459.258 mm^3 and 449.651 mm^3 and 146.864 mm^3 and 132.276 mm^3 and 263.192 mm^3 and 174.278 mm^3
[1]; Fig.3c TMD-8, 1.5mg/kg p.o. QD x 21D, day 10
  Tumor volume: 490.697 mm^3 and 432.678 mm^3 and 235.012 mm^3 and 190.412 mm^3 and 150.967 mm^3 and 163.029 mm^3
[1]; Fig.3c TMD-8, 1.5mg/kg p.o. QD x 21D, day 14
  Tumor volume: 640.246 mm^3 and 434.37 mm^3 and 213.016 mm^3 and 174.551 mm^3 and 71.2181 mm^3 and 175.498 mm^3
[1]; Fig.3c TMD-8, 1.5mg/kg p.o. QD x 21D, day 17
  Tumor volume: 730.308 mm^3 and 597.229 mm^3 and 374.112 mm^3 and 196.792 mm^3 and 127.555 mm^3 and 127.945 mm^3
[1]; Fig.3c TMD-8, 1.5mg/kg p.o. QD x 21D, day 21
  Tumor volume: 1151.12 mm^3 and 1193.19 mm^3 and 830.854 mm^3 and 339.119 mm^3 and 375.477 mm^3 and 217.147 mm^3
[1]; Fig.3c TMD-8, 3mg/kg p.o. QD x 21D, day 0
  Tumor volume: 135.749 mm^3 and 160.378 mm^3 and 111.097 mm^3 and 215.602 mm^3 and 96.5 mm^3 and 162.39 mm^3
[1]; Fig.3c TMD-8, 3mg/kg p.o. QD x 21D, day 3
  Tumor volume: 210.016 mm^3 and 166.954 mm^3 and 177.118 mm^3 and 367.777 mm^3 and 150.727 mm^3 and 208.299 mm^3
[1]; Fig.3c TMD-8, 3mg/kg p.o. QD x 21D, day 7
  Tumor volume: 347.833 mm^3 and 254.452 mm^3 and 292.586 mm^3 and 297.998 mm^3 and 182.149 mm^3 and 258.854 mm^3
[1]; Fig.3c TMD-8, 3mg/kg p.o. QD x 21D, day 10
  Tumor volume: 278.167 mm^3 and 325.57 mm^3 and 336.135 mm^3 and 344.695 mm^3 and 159.095 mm^3 and 292.996 mm^3
[1]; Fig.3c TMD-8, 3mg/kg p.o. QD x 21D, day 14
  Tumor volume: 177.492 mm^3 and 209.22 mm^3 and 327.654 mm^3 and 243.833 mm^3 and 100.203 mm^3 and 228.258 mm^3
[1]; Fig.3c TMD-8, 3mg/kg p.o. QD x 21D, day 17
  Tumor volume: 203.37 mm^3 and 180.739 mm^3 and 317.134 mm^3 and 320.512 mm^3 and 84.6294 mm^3 and 268.501 mm^3
[1]; Fig.3c TMD-8, 3mg/kg p.o. QD x 21D, day 21
  Tumor volume: 566.866 mm^3 and 363.185 mm^3 and 475.409 mm^3 and 503.514 mm^3 and 313.1 mm^3 and 324.211 mm^3
[1]; TMD8 large B cell lymphoma model, compared with Ibrutinib
  effect on tumor growth: stronger tumor-suppressive effects
TAMs; time 0
  Number of TAMs (Fig.6c): 5
TAMs; time 24
  Number of TAMs (Fig.6c): 5.5 and 5.2 and 6.2
TAMs; time 48
  Number of TAMs (Fig.6c): 6.8 and 6.3 and 7.4
TAMs; time 72
  Number of TAMs (Fig.6c): 8.9 and 9.5 and 8.5
